Measured values reported in patent US11503826B2, “Low volatility auxin herbicide formulations” (priority 2009, dated 2022).
Where two headings read alike, the source gives them in different places.

Key:
[1] = 20° C.; 'is believed to have'; cited from earlier work
[2] = 5% a.e. DMA Dicamba solution
[3] = Aqueous solubility of dicamba acid and dicamba salts
From the text: The solution was then passed through a 0.45 micron filter and assayed by HPLC for soluble dicamba.

eyes of rabbit = tested on: eyes of rabbit
Experimental: Eye irritation measurement can be done according to the methods provided in U.S. Environmental Protection Agency Office of Prevention, Pesticides and Toxic Substances, Health Effects Test Guidelines (for example, OPPTS 870.2400 Acute Eye Irritation, August 1998).
The eye irritation potential of an aqueous formulation of the present invention was evaluated. […] Eye irritation testing was done according to the methods provided in U.S. Environmental Protection Agency Office of Prevention, Pesticides and Toxic Substances, Health Effects Test Guidelines: OPPTS 870.2400 Acute Eye Irritation. The eyes of 3 rabbit animals were treated with the formulation and were scored for effects on the cornea, iris, and conjunctivae (redness, swelling and discharge).

[4] = type: physicochemical; conditions: 38.5 wt % a.e. solutions (Table 4i)
Experimental: In a further set of experiments, measurements of dicamba concentration in the gas phase (air) above 38.5 wt % a.e. solutions of various dicamba salts was measured. 5 mL of each sample of dicamba was placed into a 50 mL plastic centrifuge tube with four holes approximately ⅛ in diameter drilled into the tube at the 10 mL line. A 22 mm×30 mm PUF (SKC ct. #226-124) was placed into a glass tube of app. 20 mm diameter with parafilm wrapped around the outside to obtain a snug fit into the top of the centrifuge tube. A hose was connected to the other end of the glass tube leading to a vacuum line. The air flow was regulated to app. 2 L/min using a flow controller (about 0.4 L air/min-mL sample). Air was pulled through the tube at […] for approximately 1 day. Note that the air conditions of flow rate, temperature, pressure and composition (e.g., relative humidity) are not narrowly critical as long as the various samples are analyzed under similar conditions. For instance, air at from about 5° C. to about 40° C., from about 0.5 to about 1.5 bar pressure, from about 0% to about 95% relative humidity, and at a flow rate of from about 0.1 to 10 L/min-mL sample could be suitably used for volatility analysis. The PUF was removed from the glass tube, extracted with 20 mL methanol and the resulting solution analyzed for dicamba concentration by LC-MS. The results are shown in Table 4i below where “wt % a.e.” refers to the dicamba concentration, “μg/mL” refers to the dicamba concentration in the distillate, “μg dicamba” refers to the total dicamba extracted from the PUF by 20 mL methanol, and “ng/L air” and “moles/L air” refer to the dicamba concentration in the gas phase above the solution.

Structure (SMILES) | solubility g a.e./L [1] | solubility wt % a.e. [1] | pH Solution After Distillation ([2]; starting solution pH 3.60) | ppm DMA in Distillate ([2]; starting solution pH 3.60) | pH Solution After Distillation ([2]; starting solution pH 8.20) | ppm DMA in Distillate ([2]; starting solution pH 8.20) | pH Solution After Distillation ([2]; starting solution pH 10.10) | ppm DMA in Distillate ([2]; starting solution pH 10.10) | amine in the distillate by HPLC analysis ([2]; acidic pH (3.6)) | aqueous solubility wt % a.e. @20° C. ([3]; Table 10b, second experiment, dicamba acid and salts, 20° C.) | aqueous solubility wt % a.i. @20° C. ([3]; Table 10b, second experiment, dicamba salts, 20° C.) | crystal formation from concentrated salt solution ([3]; solubility experiment, Example 10) | time after treatment at which all eyes were free of positive scores (eyes of rabbit; 61 wt % a.e., pH 8.5) | time by which all eyes were free of all irritation (eyes of rabbit; 61 wt % a.e., pH 8.5) | eye irritation rating in words (eyes of rabbit; Example 16: 61 wt % a.e. aqueous MEA dicamba, pH 8.5, 3 rabbits, b51: concentrate formulations at pH about 8) | ocular findings in all treated eyes (eyes of rabbit; within 24 hours after treatment, 61 wt % a.e., pH 8.5) | dicamba concentration in the gas phase above the solution, comparison [4] | gas concentration, times less than the commercial product BANVEL [4]
CNC.COc1c(Cl)ccc(Cl)c1C(=O)O [Dicamba DMA salt] | ~600 g a.e./L | about 45 wt % a.e. | 3.58 | Undetectable | 7.04 | 400 ppm | 6.4 | 5000 ppm | no detectable amine | – | – | – | – | – | – | – | – | –
COc1c(Cl)ccc(Cl)c1C(=O)O.NCCO [Dicamba MEA salt] | – | – | – | – | – | – | – | – | – | 66.1 wt % a.e. | 84.4 wt % a.i. | did not form crystals | 7 days | ≤ 10 days | moderately irritating | corneal opacity, iritis and conjunctivitis | lower than the acid or the sodium, potassium and DMA salts | ~20 times
